According to BindingDB's records for doi:10.1016/j.bmc.2010.08.049 (University of Wisconsin-Milwaukee, 2010):
pKi: −log10 of the molar value.

Key:
[1] = target: Gamma-aminobutyric acid receptor subunit alpha-6/beta-3/gamma-2 (Homo sapiens, UniProt Q16445+P18507+P28472); assay: Displacement of [3H]flunitrazepam from human recombinant GABAA alpha-6-beta-3-gamma-2 receptor expressed in HEK cells by liquid scintillation counting
[2] = target: T1, Gamma-aminobutyric acid receptor subunit alpha-3/beta-3/gamma-2 (Homo sapiens, UniProt P34903+P18507+P28472); assay: Displacement of [3H]flunitrazepam from human recombinant GABAA alpha-3-beta-3-gamma-2 receptor expressed in HEK cells by liquid scintillation counting
T1 sequence (P34903 whole entry): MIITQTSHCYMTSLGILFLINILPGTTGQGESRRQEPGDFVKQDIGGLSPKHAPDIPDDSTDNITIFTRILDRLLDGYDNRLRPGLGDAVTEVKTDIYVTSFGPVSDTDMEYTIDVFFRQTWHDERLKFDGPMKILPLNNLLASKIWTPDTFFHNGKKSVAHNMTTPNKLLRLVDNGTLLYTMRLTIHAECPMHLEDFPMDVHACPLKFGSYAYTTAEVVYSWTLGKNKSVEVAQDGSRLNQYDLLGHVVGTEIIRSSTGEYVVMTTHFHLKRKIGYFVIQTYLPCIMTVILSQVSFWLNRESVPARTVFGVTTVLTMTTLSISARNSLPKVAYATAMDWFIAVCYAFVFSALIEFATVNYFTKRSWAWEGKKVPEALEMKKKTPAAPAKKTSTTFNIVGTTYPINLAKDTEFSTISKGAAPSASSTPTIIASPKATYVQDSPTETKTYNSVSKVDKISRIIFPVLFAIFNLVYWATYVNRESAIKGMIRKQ
T1 sequence (P18507 whole entry): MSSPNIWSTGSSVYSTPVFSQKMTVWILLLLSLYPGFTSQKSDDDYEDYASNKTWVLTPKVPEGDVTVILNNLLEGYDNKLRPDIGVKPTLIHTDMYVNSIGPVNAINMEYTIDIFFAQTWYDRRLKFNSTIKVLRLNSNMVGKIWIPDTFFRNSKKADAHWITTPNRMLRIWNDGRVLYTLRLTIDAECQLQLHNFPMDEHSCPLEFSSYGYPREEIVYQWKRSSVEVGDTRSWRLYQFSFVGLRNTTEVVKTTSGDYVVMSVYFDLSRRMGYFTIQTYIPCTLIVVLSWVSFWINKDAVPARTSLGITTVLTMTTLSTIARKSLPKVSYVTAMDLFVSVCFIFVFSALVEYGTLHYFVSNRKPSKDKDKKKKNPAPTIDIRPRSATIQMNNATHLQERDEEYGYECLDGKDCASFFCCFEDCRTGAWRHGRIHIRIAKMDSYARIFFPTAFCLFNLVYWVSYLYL
T1 sequence (P28472 whole entry): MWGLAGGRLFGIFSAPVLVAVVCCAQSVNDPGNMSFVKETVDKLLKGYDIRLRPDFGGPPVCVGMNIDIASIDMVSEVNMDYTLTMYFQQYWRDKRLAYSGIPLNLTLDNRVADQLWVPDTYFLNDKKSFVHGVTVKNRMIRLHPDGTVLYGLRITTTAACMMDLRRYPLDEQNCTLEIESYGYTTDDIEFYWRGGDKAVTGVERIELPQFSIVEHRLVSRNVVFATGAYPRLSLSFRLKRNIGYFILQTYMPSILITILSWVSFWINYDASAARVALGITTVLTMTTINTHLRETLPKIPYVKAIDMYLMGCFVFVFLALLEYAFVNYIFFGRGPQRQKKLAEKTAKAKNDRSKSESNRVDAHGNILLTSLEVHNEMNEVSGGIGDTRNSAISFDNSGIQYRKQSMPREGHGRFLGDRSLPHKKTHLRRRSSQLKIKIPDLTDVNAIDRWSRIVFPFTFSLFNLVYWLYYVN

[3] = target: T2, GABA-A receptor; alpha-2/beta-3/gamma-2 (Homo sapiens, UniProt P47869+P18507+P28472); assay: Displacement of [3H]flunitrazepam from human recombinant GABAA alpha-2-beta-3-gamma-2 receptor expressed in HEK cells by liquid scintillation counting
T2 sequence (P47869 whole entry): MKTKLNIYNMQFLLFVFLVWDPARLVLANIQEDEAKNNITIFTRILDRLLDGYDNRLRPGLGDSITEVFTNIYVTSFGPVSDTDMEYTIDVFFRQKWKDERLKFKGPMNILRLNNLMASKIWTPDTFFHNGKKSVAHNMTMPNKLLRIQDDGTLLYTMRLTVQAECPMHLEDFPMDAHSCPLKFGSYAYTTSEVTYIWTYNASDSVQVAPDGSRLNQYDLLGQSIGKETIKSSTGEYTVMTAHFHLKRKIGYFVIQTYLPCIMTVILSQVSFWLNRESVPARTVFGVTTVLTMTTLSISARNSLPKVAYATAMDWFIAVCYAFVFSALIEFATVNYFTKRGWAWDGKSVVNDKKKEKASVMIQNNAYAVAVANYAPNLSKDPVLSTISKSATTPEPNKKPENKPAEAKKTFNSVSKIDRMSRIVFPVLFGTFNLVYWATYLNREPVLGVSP
T2 sequence (P18507 whole entry): T1 sequence (P18507 whole entry)
T2 sequence (P28472 whole entry): T1 sequence (P28472 whole entry)

[4] = target: T3, GABA-A receptor; alpha-5/beta-3/gamma-2 (Homo sapiens, UniProt P31644+P18507+P28472); assay: Displacement of [3H]flunitrazepam from human recombinant GABAA alpha-5-beta-3-gamma-2 receptor expressed in HEK cells by liquid scintillation counting
T3 sequence (P31644 whole entry): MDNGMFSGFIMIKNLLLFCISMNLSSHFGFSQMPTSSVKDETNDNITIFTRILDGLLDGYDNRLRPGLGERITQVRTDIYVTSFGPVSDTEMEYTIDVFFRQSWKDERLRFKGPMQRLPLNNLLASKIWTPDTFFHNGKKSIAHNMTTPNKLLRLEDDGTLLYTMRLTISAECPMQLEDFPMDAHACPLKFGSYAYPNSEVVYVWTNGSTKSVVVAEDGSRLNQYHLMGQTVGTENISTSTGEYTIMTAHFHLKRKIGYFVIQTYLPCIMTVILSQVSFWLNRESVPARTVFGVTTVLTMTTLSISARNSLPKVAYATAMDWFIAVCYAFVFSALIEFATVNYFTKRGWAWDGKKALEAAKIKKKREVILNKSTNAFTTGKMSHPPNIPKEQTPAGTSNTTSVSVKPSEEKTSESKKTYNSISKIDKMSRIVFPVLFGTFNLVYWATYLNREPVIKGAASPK
T3 sequence (P18507 whole entry): T1 sequence (P18507 whole entry)
T3 sequence (P28472 whole entry): T1 sequence (P28472 whole entry)

[5] = target: GABA A receptor alpha-4/beta-3/gamma-2 (Homo sapiens, UniProt P48169+P18507+P28472); assay: Displacement of [3H]flunitrazepam from human recombinant GABAA alpha-4-beta-3-gamma-2 receptor expressed in HEK cells by liquid scintillation counting
GABA A receptor alpha-4/beta-3/gamma-2, sequence (P48169 whole entry, one chain of several): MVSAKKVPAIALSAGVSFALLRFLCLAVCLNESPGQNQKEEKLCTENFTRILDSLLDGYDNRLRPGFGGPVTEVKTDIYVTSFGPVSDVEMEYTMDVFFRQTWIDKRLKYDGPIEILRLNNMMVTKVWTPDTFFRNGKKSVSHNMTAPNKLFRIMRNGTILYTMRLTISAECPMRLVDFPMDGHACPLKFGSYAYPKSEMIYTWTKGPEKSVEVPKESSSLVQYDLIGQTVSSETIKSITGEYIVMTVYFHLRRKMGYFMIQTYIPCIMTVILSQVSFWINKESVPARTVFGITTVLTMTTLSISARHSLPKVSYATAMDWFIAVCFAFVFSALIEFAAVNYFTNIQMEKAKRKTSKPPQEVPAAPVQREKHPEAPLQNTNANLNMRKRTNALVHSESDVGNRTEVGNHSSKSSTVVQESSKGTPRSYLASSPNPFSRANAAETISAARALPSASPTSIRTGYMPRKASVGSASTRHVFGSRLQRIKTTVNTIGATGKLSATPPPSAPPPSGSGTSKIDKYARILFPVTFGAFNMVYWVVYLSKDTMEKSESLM

Gamma-aminobutyric acid receptor subunit alpha-6/beta-3/gamma-2, sequence (Q16445 whole entry, one chain of several): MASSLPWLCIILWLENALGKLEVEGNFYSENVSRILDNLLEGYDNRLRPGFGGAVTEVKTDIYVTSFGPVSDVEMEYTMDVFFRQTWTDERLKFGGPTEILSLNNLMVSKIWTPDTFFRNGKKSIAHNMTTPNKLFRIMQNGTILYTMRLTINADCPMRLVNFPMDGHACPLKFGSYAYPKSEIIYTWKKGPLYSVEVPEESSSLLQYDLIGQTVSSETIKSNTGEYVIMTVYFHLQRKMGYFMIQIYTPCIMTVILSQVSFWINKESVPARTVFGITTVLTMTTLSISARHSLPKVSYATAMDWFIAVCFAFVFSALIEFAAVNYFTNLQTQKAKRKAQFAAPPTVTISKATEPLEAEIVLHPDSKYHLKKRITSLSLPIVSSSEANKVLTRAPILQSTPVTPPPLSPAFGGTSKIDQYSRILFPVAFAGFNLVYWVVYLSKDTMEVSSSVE

**Q.** With `CC(C)COc1cc2c3ccccc3nc-2c[nH]1` as the molecule, how does the pKi [1] read?
**A.** 5.00

**Q.** `c1ccc(COc2cc3c4ccccc4nc-3c[nH]2)cc1` was tested. Which pKi [2] did it give?
**A.** 5.52

**Q.** And the pKi [3]?
**A.** 5.52

**Q.** And the pKi [4]?
**A.** 5.00

**Q.** What about the pKi [1] of the same molecule?
**A.** 5.00

**Q.** How did the pKi [5] turn out when `CC(C)(C)OC(=O)c1cc2c(cn1)[nH]c1ccccc12` was run?
**A.** 6.00

**Q.** What does the source list for `O=C(OC(C(F)(F)F)C(F)(F)F)c1cc2c(cn1)[nH]c1ccc(I)cc12` [1,1,1,3,3,3-hexafluoropropan-2-yl 6-iodo-9H-pyrido[3,4-b]indole-3-carboxylate]?
**A.** pKi [1]: 5.52; pKi [5]: 5.52

**Q.** How did the pKi [1] turn out when `O=C(OC(C(F)(F)F)C(F)(F)F)c1cc2c(cn1)[nH]c1ccccc12` [1,1,1,3,3,3-hexafluoropropan-2-yl 9H-pyrido[3,4-b]indole-3-carboxylate] was run?
**A.** 5.70

**Q.** What about the pKi [5] of the same molecule?
**A.** 6.00

**Q.** How did the pKi [4] turn out when `CC(C)(C)OC(=O)c1cc2c(cn1)[nH]c1ccc(C#CC#Cc3ccc4[nH]c5cnc(C(=O)OC(C)(C)C)cc5c4c3)cc12` [1,4-Bis(9H-beta-carboline-3-carboxylic acid tert-butyl ester)buta-1,3-diyne] was run?
**A.** 5.30

**Q.** And the pKi [1]?
**A.** 5.30

**Q.** And the pKi [5]?
**A.** 5.30

**Q.** `CC(OC(=O)c1cc2c(cn1)[nH]c1ccccc12)c1ccccc1` (stereo not given) [1-phenylethyl 9H-pyrido[3,4-b]indole-3-carboxylate] was tested. Which pKi [2] did it give?
**A.** 6.00

**Q.** What about the pKi [3] of the same molecule?
**A.** 6.00

**Q.** What about the pKi [4] of the same molecule?
**A.** 6.00

**Q.** What about the pKi [1] of the same molecule?
**A.** 5.52

**Q.** What about the pKi [5] of the same molecule?
**A.** 6.00

**Q.** Which results are given for `O=C(OCC(Cl)(Cl)Cl)c1cc2c(cn1)[nH]c1ccccc12` [2,2,2-trichloroethyl 9H-pyrido[3,4-b]indole-3-carboxylate]?
**A.** pKi [1]: 5.70; pKi [5]: 6.00

**Q.** `O=C(OCC(F)(F)F)c1cc2c(cn1)[nH]c1ccc(-c3ccco3)cc12` [2,2,2-trifluoroethyl 6-(furan-2-yl)-9H-pyrido[3,4-b]indole-3-carboxylate] was tested. Which pKi [1] did it give?
**A.** 5.70

**Q.** What about the pKi [5] of the same molecule?
**A.** 5.52

**Q.** What does the source list for `O=C(OCC(F)(F)F)c1cc2c(cn1)[nH]c1ccc(-c3cccs3)cc12` [2,2,2-trifluoroethyl 6-(thiophen-2-yl)-9H-pyrido[3,4-b]indole-3-carboxylate]?
**A.** pKi [1]: 5.70; pKi [5]: 5.70

**Q.** How did the pKi [1] turn out when `C#Cc1ccc2[nH]c3cnc(C(=O)OCC(F)(F)F)cc3c2c1` [2,2,2-trifluoroethyl 6-ethynyl-9H-pyrido[3,4-b]indole-3-carboxylate] was run?
**A.** 5.70

**Q.** What about the pKi [5] of the same molecule?
**A.** 5.70

**Q.** How did the pKi [1] turn out when `O=C(OCC(F)(F)F)c1cc2c(cn1)[nH]c1ccc(I)cc12` [2,2,2-trifluoroethyl 6-iodo-9H-pyrido[3,4-b]indole-3-carboxylate] was run?
**A.** 5.52

**Q.** And the pKi [5]?
**A.** 5.70

**Q.** `O=C(OCC(F)(F)F)c1cc2c(cn1)[nH]c1ccc(-c3ccccc3)cc12` [2,2,2-trifluoroethyl 6-phenyl-9H-pyrido[3,4-b]indole-3-carboxylate] was tested. Which pKi [1] did it give?
**A.** 5.70

**Q.** And the pKi [5]?
**A.** 5.70

**Q.** What does the source list for `O=C(Oc1cc(F)c(F)cc1F)c1cc2c(cn1)[nH]c1ccccc12` [2,4,5-trifluorophenyl 9H-pyrido[3,4-b]indole-3-carboxylate]?
**A.** pKi [1]: 5.52; pKi [5]: 5.52

**Q.** `CC/C=C/C=C/Oc1cc2c(cn1)[nH]c1ccccc12` [3-(hexa-1,3-dienyloxy)-9H-pyrido[3,4-b]indole] was tested. Which pKi [4] did it give?
**A.** 5.00

**Q.** And the pKi [1]?
**A.** 5.00

**Q.** With `CCOc1cc2c(cn1)[nH]c1ccccc12` [3-ethoxy-9H-pyrido[3,4-b]indole] as the molecule, how does the pKi [1] read?
**A.** 6.00

**Q.** With `CCCOc1cc2c(cn1)[nH]c1ccccc12` [3-propoxy-9H-pyrido[3,4-b]indole] as the molecule, how does the pKi [5] read?
**A.** 6.00

**Q.** With `CC(C)(C)OC(=O)c1cc2c(cn1)[nH]c1ccc(C#C[Si](C)(C)C)cc12` [6-Trimethylsilanylethynyl-9H-beta-carboline-3-carboxylic acid t-butyl ester] as the molecule, how does the pKi [1] read?
**A.** 6.00

**Q.** With `C#Cc1ccc2c(c1)c1cc(C(=O)OC(C)(C)C)ncc1n2C(=O)OC(C)(C)C` [di-tert-butyl 6-ethynyl-9H-pyrido[3,4-b]indole-3,9-dicarboxylate] as the molecule, how does the pKi [4] read?
**A.** 5.30

**Q.** What about the pKi [1] of the same molecule?
**A.** 5.30

**Q.** Which results are given for `CCOC(=O)c1cc2c(cn1)[nH]c1ccc(C#C[Si](C)(C)C)cc12` [ethyl 6-((trimethylsilyl)ethynyl)-9H-pyrido[3,4-b]indole-3-carboxylate]?
**A.** pKi [1]: 5.70; pKi [5]: 5.70

**Q.** How did the pKi [1] turn out when `CCOC(=O)c1cc2c(cn1)[nH]c1ccc(I)cc12` [ethyl 6-iodo-9H-pyrido[3,4-b]indole-3-carboxylate] was run?
**A.** 6.00

**Q.** And the pKi [5]?
**A.** 6.00

**Q.** `CC(C)(C)OC(=O)c1cc2c(cn1)[nH]c1ccc(-c3ccco3)cc12` [tert-butyl 6-(furan-2-yl)-9H-pyrido[3,4-b]indole-3-carboxylate] was tested. Which pKi [1] did it give?
**A.** 5.30

**Q.** With `CC(C)(C)OC(=O)c1cc2c(cn1)[nH]c1ccc(-c3cccs3)cc12` [tert-butyl 6-(thiophen-2-yl)-9H-pyrido[3,4-b]indole-3-carboxylate] as the molecule, how does the pKi [1] read?
**A.** 5.30

**Q.** `CC(C)(C)OC(=O)c1cc2c(cn1)[nH]c1ccc(F)cc12` [tert-butyl 6-fluoro-9H-pyrido[3,4-b]indole-3-carboxylate] was tested. Which pKi [1] did it give?
**A.** 6.00

**Q.** And the pKi [5]?
**A.** 6.00

**Q.** `CC(C)(C)OC(=O)c1cc2c(cn1)[nH]c1ccc(-c3ccccc3)cc12` [tert-butyl 6-phenyl-9H-pyrido[3,4-b]indole-3-carboxylate] was tested. Which pKi [1] did it give?
**A.** 5.30

**Q.** Which results are given for `CC(C)(C)OC(=O)c1cc2c(cn1)[nH]c1ccc(C(C)(C)C)cc12` [tert-butyl 6-tert-butyl-9H-pyrido[3,4-b]indole-3-carboxylate]?
**A.** pKi [1]: 6.00; pKi [5]: 6.00
